Assay: wn = mass fraction of the nth substance listed
Details: Liquid; for mass density: Vibrating tube method

OCCN(CCO)CCO [triethanolamine] + O
viscosity [mPa·s]
Details	w1 = 0.0992	w1 = 0.1	w1 = 0.2	w1 = 0.2991	w1 = 0.3	w1 = 0.4
313.15 K, 30000 kPa, Falling or rolling sphere viscometry	0.8992	–	1.228	1.846	–	2.889
313.15 K, 40000 kPa, Falling or rolling sphere viscometry	0.9027	–	1.231	1.861	–	2.928
313.15 K, 60000 kPa, Falling or rolling sphere viscometry	0.91	–	1.251	1.893	–	3.028
313.15 K, 80000 kPa, Falling or rolling sphere viscometry	0.9177	–	1.276	1.933	–	3.115
313.15 K, 100000 kPa, Falling or rolling sphere viscometry	0.9261	–	1.282	1.98	–	3.193
333.15 K, 100 kPa, Concentric cylinders viscometry	–	0.621	0.821	–	1.173	1.669
333.15 K, 100 kPa, Falling or rolling sphere viscometry	0.6124	–	0.8083	1.147	–	1.67
333.15 K, 5000 kPa, Falling or rolling sphere viscometry	0.6114	–	0.8084	–	–	–

mass density [kg/m3]
Details	w1 = 0.0992	w1 = 0.2	w1 = 0.2991	w1 = 0.4
313.15 K, 30000 kPa	1019.1	1033.7	1048.8	1066
313.15 K, 40000 kPa	1023	1037.6	1052.6	1069.7
313.15 K, 50000 kPa	1026.8	1041.2	1056.1	1073.2
313.15 K, 60000 kPa	1030.7	1044.9	1059.7	1076.6
313.15 K, 70000 kPa	1034.4	1048.5	1063.2	1079.9
313.15 K, 80000 kPa	1038	1051.9	1066.6	1083.1
313.15 K, 90000 kPa	1041.6	1055.3	1069.9	1086.3
313.15 K, 100000 kPa	1045.2	1058.8	1073.3	1089.5
313.15 K, 110000 kPa	1048.6	1062.1	1076.4	1092.7
313.15 K, 120000 kPa	1052	1065.6	1079.6	1095.7
313.15 K, 130000 kPa	1055.3	1068.7	1082.8	1098.7
313.15 K, 140000 kPa	1058.5	1071.9	1085.9	1101.7
333.15 K, 100 kPa	997.2	1011.6	1026.3	1043.1
333.15 K, 500 kPa	997.5	1011.8	1026.5	1043.3
333.15 K, 1000 kPa	997.7	1012	1026.7	1043.5
333.15 K, 2000 kPa	998.1	1012.4	1027.2	1043.9
